Test results reported in US7842823B2, “Fluorogenic probes for reactive oxygen species” (The Regents of the University of California, priority 2005, dated 2010).

Tests used:
[1] = comparison probe; cited from earlier work
[2] = Fluorescence response to various ROS (H2O2 selectivity); settings: 20 mM HEPES, pH 7, 25° C.; for higher response for H2O2 over .OH: .OH from Fe2+ with H2O2; for higher response for H2O2 over .OtBu: .OtBu from Fe2+ with TBHP; for higher response for H2O2 over NO: NO delivered using SNOC
Experimental: (§1) FIG. 7 is the fluorescence response of 5 μM PF1 to various ROS (10 mM O2^−, 100 μM for all other ROS). .OH and .Ot-Bu were generated by reaction of Fe^2+ with H2O2 or tert-butyl hydroperoxide (TBHP), respectively. NO was delivered using S-nitrosocysteine (SNOC). Spectra were acquired in 20 mM HEPES, pH 7, and all data were obtained after incubation with the appropriate ROS at 25° C. for 1 h. Collected emission was integrated between 460 and 700 nm (λexc=450 nm).
FIG. 8 is the fluorescence response of 5 μM PR1 to various ROS (10 mM O2^−, 100 μM for all other ROS). .OH and .O^tBu were generated by reaction of Fe^2+ with H2O2 or tert-butyl hydroperoxide (TBHP), respectively. NO was delivered using S-nitrosocysteine (SNOC). Spectra were acquired in 20 mM HEPES, pH 7, and all data were obtained after incubation with the appropriate ROS at 25° C. for 30 min. Collected emission was integrated between 570 and 800 nm (λexc=560 nm).
as §1, with “FIG. 9” for “FIG. 7”, “of 10” for “of 5”, “μM PX1” for “μM PF1”, “between 370” for “between 460”, “and 600” for “and 700”, “nm (λexc=350” for “nm (λexc=450”
(§2) Millipore water was used to prepare all aqueous solutions. All spectroscopic measurements were performed in 20 mM HEPES buffer, pH 7. Absorption spectra were recorded using a Varian Cary 50 spectrophotometer (Walnut Creek, Calif.). Fluorescence spectra were recorded using a Photon Technology International Quanta Master 4 L-format scanning spectrofluorometer (Lawrenceville, N.J.) equipped with an LPS-220B 75-W xenon lamp and power supply, A-1010B lamp housing with integrated igniter, switchable 814 photon-counting/analog photomultiplier detection unit, and MD5020 motor driver. Samples for absorption and fluorescence measurements were contained in 1-cm×1-cm quartz cuvettes (1.4- or 3.5-mL volume, Starna, Atascadero, Calif.).
FIG. 7, FIG. 8 and FIG. 9 compare the relative reactivities of boronate-based PF1, PR1, and PX1, respectively, toward various ROS.

[3] = system: HEK cells; experiment: Confocal fluorescence imaging of H2O2 in live HEK cells; settings: for cell viability during imaging: HEK cells after probe incubation and H2O2 treatment; for intracellular background fluorescence of the unreacted probe: live HEK cells, 5-10 μM probe, 5-10 min at 25° C., before H2O2; for intracellular fluorescence change upon addition of H2O2: probe-loaded live HEK cells, 10-100 μM H2O2
Experimental: (a) Fluorescence image of HEK cells incubated with 5 μM PF1 for 5 min at 25° C. (b) Fluorescence image of PF1-stained HEK cells treated with 100 μM H2O2 for 11 min at 25° C. Excitation was provided at 488 nm, and emission was collected in a window from 505 to 580 nm. Scale bar=27 μm.
(a) Fluorescence image of HEK cells incubated with 10 μM PR1 for 10 min at 25° C. (b) Fluorescence image of PR1-stained HEK cells treated with 100 μM H2O2 for 30 min at 25° C. Excitation was provided at 543 nm, and emission was collected in a window from 548 to 644 nm. Scale bar=18 μm.
HEK 293T cells were cultured in Dulbecco's Modified Eagle Medium (DMEM, Invitrogen, Carlsbad, Calif.) supplemented with 10% Fetal Bovine Serum (FBS, Invitrogen), glutamine (2 mM), and penicillin/streptomycin (50 μg/ml, Invitrogen). One day before imaging, cells were passed and plated on 18-mm glass coverslips coated with poly-L-lysine (50 μg/ml, Sigma, St. Louis, Mo.). Immediately before the experiments, cells were washed with PBS buffer, incubated with the probe in PBS, and imaged.
Confocal fluorescence imaging was performed with a Zeiss LSM510 META laser scanning microscope containing an Axioplan 2 MOT upright microscope and a 40× water-immersion objective lens. Excitation of PF1-loaded cells at 488 nm was carried out with an argon ion laser, and emission was collected in a window from 505 nm to 580 nm using a META detection system. Excitation of PR1-loaded cells at 543 nm was carried out with a HeNe laser, and emission was collected in a window from 548 nm to 644 nm using a META detector. PF1 or PR1 were incubated with live cell samples for 5 to 10 min. Addition of H2O2 (10 to 100 μM) to cell samples was performed directly on the microscope stage by bath application to the media.
The family of red-, green-, and blue-fluorescent reagents for the optical detection of H2O2 in living biological samples.

[4] = system: embryonic rat hippocampal neurons (E18); experiment: Fluorescence imaging of H2O2 in primary hippocampal neurons; type: cell-based
Experimental: Hippocampal primary cultures were prepared from embryonic day 18 (E18) rat embryos according to a previously reported protocol. Briefly, hippocampi were dissociated by treatment with trypsin for 20 min at 37° C. followed by washing. The neuronal cells were plated on glass coverslips (Carolina Biological, Burlington, N.C.) coated with poly-L-lysine (50 μg/ml, Sigma) and cultured in neurobasal medium supplemented with 2 mM Glutamax and 2% B-27 (Invitrogen). After 10 days in vitro, the cultures were washed with PBS, incubated with the probe in PBS, and imaged.
Finally, the successful use of the Peroxysensor probes for monitoring changes in intracellular H2O2 concentrations in mammalian cell lines using either confocal or two-photon microscopy led us to evaluate their utility in primary culture systems. […] Control neurons without PF1 and/or H2O2 treatment show no detectable fluorescence enhancements. These experiments confirm that PF1 can be used in living neurons to detect oxidative stress events.

[5] = Spectroscopic properties under simulated physiological conditions; type: physicochemical; settings: 20 mM HEPES buffer; for fluorescence of unreacted probe: pH 7, before H2O2
Experimental: as §2
(§3) The Peroxysensor reagents were evaluated under simulated physiological conditions (20 mM HEPES buffer, pH 7). […] FIG. 4, FIG. 5 and FIG. 6 show the fluorescence responses of PF1, PR1, and PX1, respectively, to H2O2.

[6] = Fluorescence response of the Peroxysensor probes to H2O2 in buffer; settings: 20 mM HEPES buffer, pH 7; H2O2 addition
Experimental: as §2, §3

[7] = system: HEK cells; experiment: Two-photon fluorescence imaging of H2O2 in live HEK cells; type: cell-based
Experimental: Two-photon excitation was provided at 704 nm, and emission was collected in a window from 420 to 500 nm. Scale bar=18 μm
Two-photon fluorescence imaging of PX1 was carried out using an inverted Zeiss LSM510 Axiovert 200M microscope with a NeoFLUAR 40x/1.3 NA oil-immersion objective lens. Samples were excited by 704-nm pulses from a mode-locked Ti:Sapphire laser (Tsunami, SpectraPhysics, 120-150 fs pulse width, 80 MHz repetition rate). The emission light was filtered with a 80-nm wide bandpass filter centered at 460 nm (460BP40, Chroma) and detected with the non-descanned detector (NDD) of the LSM510.
Alternative methods were explored for applying the blue-fluorescent PX1 reporter toward intracellular H2O2 detection, reasoning that its short ultraviolet excitation maximum (˜350 nm) would promote interfering absorbance, scattering, and background autofluorescence from native cellular species. […] Whereas one-photon fluorescence microscopy uses a single photon to excite a fluorophore into its excited state, two-photon fluorescence microscopy uses two photons of lower energy light to generate a fluorophore excited state. […] Control cells without probe give the same fluorescence response, establishing that the observed background signal is from endogenous cellular species.

SMILES	higher response for H2O2 over .OH ([2]; 100 μM ROS) [fold]	higher response for H2O2 over .OtBu ([2]; 100 μM ROS) [fold]	cell viability during imaging [3]	intracellular background fluorescence of the unreacted probe [3]	intracellular fluorescence change upon addition of H2O2 [3]	fluorescence of unreacted probe [5]	higher response for H2O2 over NO ([2]; 100 μM ROS)	other results
O=C(O)c1ccccc1C1c2cc(Cl)c(O)cc2Oc2cc(O)c(Cl)cc21 [DCFH, 2′,7′-dichlorodihydrofluorescein]	–	–	–	–	–	–	–	fluorescence increase by reaction with .OH or peroxynitrite (ONOO−) [1]: ca. 7000 fold; fluorescence increase upon addition of H2O2 [1]: 190 fold; fluorescence increase upon light-induced autoxidation [1]: 2000 fold; fluorescence increase with NO [1]: 150 fold; fluorescence increase with O2− [1]: 67 fold
CC1(C)OB(c2ccc3c(c2)Oc2cc(B4OC(C)(C)C(C)(C)O4)ccc2C32OC(=O)c3ccccc32)OC1(C)C [PF1, 3′,6′-Bis(pinacolatoboron)fluoran]	> 3	> 15	cells are viable throughout the imaging experiments	negligible intracellular background fluorescence	prompt increases in intracellular green fluorescence	non-fluorescent	–	background fluorescence of the unreacted probe ([4]; 10 μM probe, 5 min at 25° C.): negligible background fluorescence; intracellular fluorescence change under simulated oxidative stress ([4]; 300 μM H2O2 for 30 min at 25° C.): notable increases in intracellular fluorescence
CC1(C)OB(c2ccc3c(c2)Oc2cc(B4OC(C)(C)C(C)(C)O4)ccc2N3)OC1(C)C [PR1, 3,7-Bis(pinacolatoboron)phenoxazine]	> 200	> 200	cells are viable throughout the experiments	virtually no background fluorescence	Striking increases in intracellular red fluorescence	non-fluorescent	> 200 fold	higher response for H2O2 over O2− ([2]; 10 mM O2−, 100 μM H2O2): > 1000 fold
CC1(C)OB(c2ccc3c(=O)c4ccc(B5OC(C)(C)C(C)(C)O5)cc4oc3c2)OC1(C)C [PX1, 3,6-Bis(pinacolatoboron)xanthone]	–	–	–	–	–	weak fluorescence	ca. 6 fold	increase in integrated fluorescence intensity (dynamic range) upon reaction with H2O2 [6]: 52 fold; higher response for H2O2 over tert-butyl hydroperoxide (TBHP) ([2]; 100 μM ROS): > 100 fold; intracellular background fluorescence of the unreacted probe ([7]; live HEK cells, 10 μM probe, 2-3 min at 25° C., two-photon excitation 704 nm): minimal intracellular background fluorescence; intracellular fluorescence change upon addition of H2O2 ([7]; probe-stained HEK cells, 100 μM H2O2, two-photon excitation 704 nm): Prompt increases in intracellular blue fluorescence; emission maximum of unreacted probe ([5]; pH 7): 400 nm; ultraviolet absorption maximum ([5]; pH 7): 350 nm; extinction coefficient ε at absorption maximum ([5]; pH 7, 350 nm): 4700 M⁻¹ cm⁻¹
